Data on one molecule can be found in US10286056B2, “Adjuvant nanoemulsions with crystallisation inhibitors” (GLAXOSMITHKLINE BIOLOGICALS S.A., priority 2011, dated 2019).

This data set in a line: log P (partition coefficient in 1-octanol and water). In kind it is physicochemical. The following applies: 1-octanol/water, pH 7.4. The source says: Emulsions of the invention are useful for formulating lipophilic pharmacological agents (LPAs) for in vivo use. Such LPAs include, but are not limited to, vitamins (e.g. vitamins A, D, E and K and their salts/esters, such as α-tocopherol succinate), carotenoids (e.g. β-carotene), fatty acids (e.g. arachidonic acid, ecosapentaenoic acid docosahexaenoic acid), pyrimidines (e.g. 5-hydroxy-4,6-dimethyl-2-(6-phenylhexyl)aminopyrimidine), ansamitocins, angiotensin II receptor antagonists (e.g. candesartan cilexetil), and immunopotentiators (e.g. muramyl dipeptides).
For example, to deliver a 25 μg dose in a typical oil-in-water emulsion would require the agonist to have a squalene solubility of 10 mg/ml, which is about 2.5× higher than can be achieved.

The structures appear in SMILES notation.

Usually logP stands for the decadic logarithm of the partition coefficient of the neutral form, usually between octanol and water. As to `Cc1ccc2c(c1)nc(N)c1ncc(CCc3ccc(OCCC(C)C)cc3C)cc12` [compound ‘A’], the logP turned out to be 7.5.
